Results as given in patent US20210261512A1, “NOVEL COMPOUNDS” (INFLAZOME LIMITED, priority 2018, published 2021).

What was measured:
NLRP3 inflammasome = conditions: previously characterised weak NLRP3 inhibitors; nonspecific; cited from earlier work
PK, oral administration = assay type: in vivo, male Sprague Dawley rats; conditions: male, Sprague Dawley, plasma, rat, 3 mg/kg
Procedure: Pharmacokinetic parameters were determined in male Sprague Dawley rats (Vital River Laboratory Animal Technology Co Ltd, Beijing, China, 6-9 weeks old). Animals were maintained under a 12 h light/dark cycle. Animals had free access to food and water, except that orally dosed animals were food deprived overnight prior to the study.
For intravenous administration, compounds were formulated as a solution (in DMSO:water [10:90] or in DMSO:PBS [10:90]) in 2 mL/kg dosing volume and administered via tail vein. For oral administration, compounds were formulated as a solution (in 0.5% methylcellulose in water) in […] dosing volume and administered orally.
Serial blood samples (about 200 μL) were taken from each animal at each of 8 time-points post dose ([…], 0.25, 0.5, 1, 2, 4, 8 and 24 h). Samples were held on ice for no longer than 30 minutes before centrifugation (5,696 rpm (3,000 g) for 15 minutes) for plasma generation. Plasma was frozen on dry ice prior to bioanalysis. PK parameters were generated from LC-MS/MS data using Phoenix WinNonlin 6.3 software.

[1] = PK, intravenous administration; assay type: in vivo; conditions: rat, plasma, male Sprague Dawley rats, dose about 1 mg/kg; for Vd: read-out: Vdss
Summary of the method: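 Male Sprague Dawley rats (6-9 weeks); IV dosing via tail vein as solution in DMSO:water or DMSO:PBS (10:90), oral dosing in 0.5% methylcellulose after overnight fasting. Plasma sampled at 8 time-points to 24 h; parameters derived from LC-MS/MS data.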

NLRP3 [2] = molecular target: T1, NLRP3 (Homo sapiens, UniProt Q96P20); experiment: THP-1 cells pyroptosis assay; assay type: cell-based; design: Seed THP-1 cells (25,000 cells/well) containing 1.0 μg/ml LPS; host or cells: THP-1; conditions: LPS 1.0 μg/ml, nigericin 5 μM, resazurin readout, 10 μM top dose (Example 2: top dose of 30 μM)
Summary of the method: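 THP-1 cells (25,000/well) primed with 1 μg/ml LPS in serum-free RPMI, treated with compound (8-point dilution, 10 μM top unless stated; 0.1% DMSO) 3 h at 37°C, then nigericin 5 μM 1 h. Viability read by resazurin (100 μM, 1-2 h) fluorescence; IC50 from 4-parameter fit.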

NLRP3 [3] = molecular target: T1, NLRP3; experiment: Human whole blood IL1β release assay; assay type: cell-based; conditions: LPS 1 μg/ml, nigericin 10 μM, IL-1β AlphaLisa, 10 μM top dose (Example 2: top dose of 30 μM), read-out: HWB IC50
Summary of the method: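 Healthy-donor heparinised human whole blood with 1 μg/ml LPS, compound (8-point half-log dilution, 10 μM top dose unless stated; 0.1% DMSO vehicle) for 3 h at 37 °C, then nigericin 10 μM final for 1 h. Supernatant IL-1β by AlphaLISA; IC50 from 4-parameter variable-slope fit.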

T1 sequence (Q96P20 whole entry): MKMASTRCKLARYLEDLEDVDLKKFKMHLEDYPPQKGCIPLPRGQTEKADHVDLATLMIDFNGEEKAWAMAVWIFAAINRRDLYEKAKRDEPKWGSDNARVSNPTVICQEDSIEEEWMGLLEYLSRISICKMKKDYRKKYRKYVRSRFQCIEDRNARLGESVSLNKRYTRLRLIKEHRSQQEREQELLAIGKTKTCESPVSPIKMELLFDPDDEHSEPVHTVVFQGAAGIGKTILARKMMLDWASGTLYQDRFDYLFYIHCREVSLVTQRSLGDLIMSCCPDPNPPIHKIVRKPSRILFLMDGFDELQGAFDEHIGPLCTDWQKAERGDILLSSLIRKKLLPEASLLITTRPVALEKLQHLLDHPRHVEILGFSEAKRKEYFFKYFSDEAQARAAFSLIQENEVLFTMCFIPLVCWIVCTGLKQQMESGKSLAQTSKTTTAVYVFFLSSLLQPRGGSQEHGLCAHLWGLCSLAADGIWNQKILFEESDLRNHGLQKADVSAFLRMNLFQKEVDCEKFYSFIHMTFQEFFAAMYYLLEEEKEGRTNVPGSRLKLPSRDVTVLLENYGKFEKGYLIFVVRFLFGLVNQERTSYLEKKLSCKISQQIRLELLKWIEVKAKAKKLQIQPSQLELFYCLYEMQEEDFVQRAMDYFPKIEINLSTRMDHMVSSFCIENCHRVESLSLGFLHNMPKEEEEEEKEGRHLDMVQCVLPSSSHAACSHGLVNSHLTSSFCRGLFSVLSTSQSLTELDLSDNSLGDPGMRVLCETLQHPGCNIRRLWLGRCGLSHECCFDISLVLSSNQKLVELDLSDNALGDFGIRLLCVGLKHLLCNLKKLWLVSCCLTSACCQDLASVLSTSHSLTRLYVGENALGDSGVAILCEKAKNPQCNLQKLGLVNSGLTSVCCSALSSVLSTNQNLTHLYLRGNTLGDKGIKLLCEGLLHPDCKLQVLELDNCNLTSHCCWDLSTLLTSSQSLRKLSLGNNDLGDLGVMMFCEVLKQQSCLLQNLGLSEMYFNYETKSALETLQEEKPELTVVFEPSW

SMILES | NLRP3 inhibition (NLRP3 inflammasome) | AUC (PK, oral administration) [ng·h/mL] | CL/F (PK, oral administration) [mL/min/kg] | Cmax (PK, oral administration) [ng/mL] | Tmax (PK, oral administration) [h] | bioavailability (PK, oral administration) [%] | half-life (PK, oral administration) [h] | AUC [1] [ng·h/mL] | clearance [1] [mL/min/kg] | half-life [1] [h] | Vd [1] [L/kg] | IC50 (NLRP3 [2]) [nM] | IC50 (NLRP3 [3]) [nM]
O=[N+]([O-])C=Cc1ccc2c(c1)OCO2 [3,4-methylenedioxy-β-nitrostyrene] | limited potency | – | – | – | – | – | – | – | – | – | – | – | –
CN(C)Cc1ccc(S(=O)(=O)c2nnc(Nc3c4c(cc5c3CCC5)CCC4)[nH]2)cc1 [Example 43, 5-((4-((dimethylamino)methyl)phenyl)sulfonyl)-N-(1,2,3,5,6,7-hexahydro-s-indacen-4-yl)-4H-1,2,4-triazol-3-amine] | – | 878 | 61.5 | 594 | 0.25 | 48.6 | 1.2 | 602 | 28 | 0.7 | 0.66 | ≤ 1000 | –
COc1cc(-c2cc(F)cc(C(C)C)c2Oc2nnc(S(=O)(=O)N3CC4(CCN(C)C4)C3)[nH]2)ccn1 [Example 250, 2-((5-(4-fluoro-2-isopropyl-6-(2-methoxypyridin-4-yl)phenoxy)-4H-1,2,4-triazol-3-yl)sulfonyl)-6-methyl-2,6-diazaspiro[3.4]octane] | – | – | – | – | – | – | – | 392 | 55.2 | 0.26 | 0.6 | ≤ 500 | ≤ 5000
COc1cc(-c2cc(F)cc(C(C)C)c2Oc2nnc(S(=O)(=O)N3CCC4(CCN4C)CC3)[nH]2)ccn1 [Example 252, 7-((5-(4-fluoro-2-isopropyl-6-(2-methoxypyridin-4-yl)phenoxy)-4H-1,2,4-triazol-3-yl)sulfonyl)-1-methyl-1,7-diazaspiro[3.5]nonane] | – | – | – | – | – | – | – | 362 | 51.1 | 0.426 | 0.82 | ≤ 1000 | ≤ 5000
COc1cc(-c2cc(F)cc(C(C)C)c2Nc2nnc(S(=O)(=O)N3CCC(CN(C)C)C3)[nH]2)ccn1 (stereo not shown) [Example 259, 5-((3-((dimethylamino)methyl)pyrrolidin-1-yl)sulfonyl)-N-(4-fluoro-2-isopropyl-6-(2-methoxypyridin-4-yl)phenyl)-4H-1,2,4-triazol-3-amine] | – | – | – | – | – | – | – | 169 | 90.1 | 2.23 | 9.57 | ≤ 500 | ≤ 1000
CC(C)N1CCC2(C1)CN(S(=O)(=O)c1nnc(Nc3c4c(cc5c3CCC5)CCC4)[nH]1)C2 [Example 264, N-(1,2,3,5,6,7-hexahydro-s-indacen-4-yl)-5-((6-isopropyl-2,6-diazaspiro[3.4]octan-2-yl)sulfonyl)-4H-1,2,4-triazol-3-amine] | – | – | – | – | – | – | – | 280 | 59.6 | 1.89 | 5.78 | ≤ 500 | ≤ 500
O=S(=O)(c1nnc(Nc2c3c(cc4c2CCC4)CCC3)[nH]1)N1CCC2(CCCN2)CC1 [Example 268, 5-((1,8-diazaspiro[4.5]decan-8-yl)sulfonyl)-N-(1,2,3,5,6,7-hexahydro-s-indacen-4-yl)-4H-1,2,4-triazol-3-amine] | – | – | – | – | – | – | – | 175 | 95.3 | 2.52 | 12.1 | ≤ 500 | ≤ 1000
CN1CCC12CCN(S(=O)(=O)c1nnc(Nc3c4c(cc5c3CCC5)CCC4)[nH]1)CC2 [Example 270, N-(1,2,3,5,6,7-hexahydro-s-indacen-4-yl)-5-((1-methyl-1,7-diazaspiro[3.5]nonan-7-yl)sulfonyl)-4H-1,2,4-triazol-3-amine] | – | – | – | – | – | – | – | 236 | 71 | 2.53 | 9.16 | ≤ 500 | ≤ 500
CN(C)C1CCCN(S(=O)(=O)c2nnc(Nc3c4c(cc5c3CCC5)CCC4)[nH]2)CC1 (stereo not shown) [Example 271, 1-((5-((1,2,3,5,6,7-hexahydro-s-indacen-4-yl)amino)-4H-1,2,4-triazol-3-yl)sulfonyl)-N,N-dimethylazepan-4-amine] | – | – | – | – | – | – | – | 221 | 75 | 3.53 | 14.9 | ≤ 500 | ≤ 1000
CN1CCC2(C1)CN(S(=O)(=O)c1nnc(Nc3c4c(cc5c3CCC5)CCC4)[nH]1)C2 [Example 274, N-(1,2,3,5,6,7-hexahydro-s-indacen-4-yl)-5-((6-methyl-2,6-diazaspiro[3.4]octan-2-yl)sulfonyl)-4H-1,2,4-triazol-3-amine] | – | – | – | – | – | – | – | 271 | 61.6 | 1.64 | 6.2 | ≤ 500 | ≤ 500
CN1CCC2(CCN(S(=O)(=O)c3nnc(Nc4c5c(cc6c4CCC6)CCC5)[nH]3)CC2)C1 [Example 276, N-(1,2,3,5,6,7-hexahydro-s-indacen-4-yl)-5-((2-methyl-2,8-diazaspiro[4.5]decan-8-yl)sulfonyl)-4H-1,2,4-triazol-3-amine] | – | – | – | – | – | – | – | 239 | 69.7 | 1.94 | 7.51 | ≤ 500 | ≤ 500
CN1CCCC12CCN(S(=O)(=O)c1nnc(Nc3c4c(cc5c3CCC5)CCC4)[nH]1)CC2 [Example 278, N-(1,2,3,5,6,7-hexahydro-s-indacen-4-yl)-5-((1-methyl-1,8-diazaspiro[4.5]decan-8-yl)sulfonyl)-4H-1,2,4-triazol-3-amine] | – | – | – | – | – | – | – | 278 | 60 | 1.8 | 5.9 | ≤ 500 | ≤ 500
COc1cc(-c2cc(F)c3c(c2Nc2nnc(S(=O)(=O)N4CC5(CCN(C)C5)C4)[nH]2)CCC3)ccn1 [Example 299, N-(7-fluoro-5-(2-methoxypyridin-4-yl)-2,3-dihydro-1H-inden-4-yl)-5-((6-methyl-2,6-diazaspiro[3.4]octan-2-yl)sulfonyl)-4H-1,2,4-triazol-3-amine] | – | – | – | – | – | – | – | 195 | 103 | 1.33 | 5.21 | ≤ 500 | ≤ 500
CN(C)C1CCN(S(=O)(=O)c2nnc(Nc3c4c(c(Cl)c5c3CCC5)CCC4)[nH]2)CC1 [Example 300, 1-((5-((8-chloro-1,2,3,5,6,7-hexahydro-s-indacen-4-yl)amino)-1H-1,2,4-triazol-3-yl)sulfonyl)-N,N-dimethylpiperidin-4-amine] | – | – | – | – | – | – | – | 235 | 70.8 | 2.65 | 10.6 | ≤ 500 | ≤ 5000
CC(C)c1cc(F)cc(C(C)C)c1Nc1nnc(S(=O)(=O)N2CCC(N(C)C)CC2)[nH]1 [Example 303, 1-((5-((4-fluoro-2,6-diisopropylphenyl)amino)-1H-1,2,4-triazol-3-yl)sulfonyl)-N,N-dimethylpiperidin-4-amine] | – | – | – | – | – | – | – | 200 | 80.7 | 2.45 | 11.5 | ≤ 1000 | ≤ 5000
CC(C)(O)Cn1ccc(S(=O)(=O)c2nnc(Nc3c4c(cc5c3CCC5)CCC4)[nH]2)n1 [Example 328, 1-(3-((5-((1,2,3,5,6,7-hexahydro-s-indacen-4-yl)amino)-4H-1,2,4-triazol-3-yl)sulfonyl)-1H-pyrazol-1-yl)-2-methylpropan-2-ol] | – | – | – | – | – | – | – | 1240 | 13.5 | 0.653 | 0.518 | ≤ 500 | ≤ 10000
C[S+](C)[O-] [dimethyl sulfoxide] | limited potency | – | – | – | – | – | – | – | – | – | – | – | –
